# Results taken from PMC10799292, “The Role of β-Defensin 1 Against Porphyromonas gingivalis Lipopolysaccharide-Mediated Inflammation in the THP-1 Cell Line” (Cureus, 2023).
# No end group written: not given here.
# Tests used:
# THP-1 cells [1] = test: Apoptosis by flow cytometry (Annexin V & Dead Cell); assay type: cell-based, human; conditions: β-defensin 1 22.62 ng/mL 24 h after Pg-LPS 1 µg/mL; untreated control 87.25%
# Method: Untreated control and Pg-LPS treated wells were also maintained. To the tubes, 100 μL of the Muse™ Annexin V & Dead Cell Reagents were added separately. The tubes were completely mixed by pipetting up and down or spinning at a medium speed for three to five seconds, followed by 20 minutes of incubation in the dark at room temperature. The cells were examined with a Flow Cytometer, gated against untreated control cells, and evaluated for apoptosis with the Muse FCS 3.0 software.
# The Muse Annexin V & Dead Cell Kit is a method to analyze cells in various stages of apoptosis, where fluorescently labeled Annexin V binds to phosphatidylserine (PS), which translocates to the outer surface of the cell membrane upon the onset of apoptosis. 7-AAD is excluded from live and healthy cells and permeates late-stage apoptotic and dead cells. […] The result is depicted in Figure 9.
# [2] = molecular docking; cited from earlier work
# Description: Two important functions of macrophages are to eliminate pathogens through phagocytosis and apoptosis of inflammatory cells and their subsequent clearance (efferocytosis). The present study analyzed the role of AMP, β-defensin 1, in Pg-LPS-stimulated THP-1 differentiated macrophage cells.
# THP-1 cells [3] = test: Intracellular ROS generation, DCFDA assay; assay type: cell-based, human; conditions: β-defensin 1 22.62 ng/mL 24 h after Pg-LPS 1 µg/mL 1 h; DCFDA 30 min, ex 470 nm, em 635 nm; untreated control 2379
# Method: Untreated control and Pg-LPS treated wells were also maintained. The cells were washed with PBS, and 50 µl of Dichlorodihydrofluorescein diacetate (DCFDA) was added, followed by incubation for 30 minutes. After incubation, excess dye was removed with PBS, and fluorescence was observed using a fluorescent microscope (Olympus CKX41 with Optika Pro5 CCD camera) and quantified with a fluorimeter at 470 nm excitation and emission at […] (Qubit 3.0, Life Technologies, USA), displaying the results in arbitrary units (AU).
# The effect of β-defensin 1 on ROS generation in THP-1 cells stimulated with Pg-LPS was studied. DCFDA, a fluorogenic dye, measures hydroxyl, peroxyl, and other ROS activities within the cell. After entering the cell, DCFDA is deacetylated by cellular esterases into a non-fluorescent compound. This nonfluorescent chemical is then oxidized by ROS into […] (DCF), which, upon excitation with a blue filter, emits green fluorescence. When THP-1 cells were stimulated with Pg-LPS, there was a considerable increase in fluorescence, which decreased upon treatment with β-defensin 1, as shown in Figure 7 and Table 2.
# [4] = tested on: Pg-LPS stimulated THP-1 cells; test: Cytotoxic evaluation of β-defensin 1 against Pg-LPS-treated THP-1 cells (MTT); assay type: cell-based, human; conditions: β-defensin 1 at 260.85 ng/mL, 24 h, triplicates
# Method: The THP-1 cell line was cultured in DMEM and supplemented with 10% FBS, sodium bicarbonate, L-glutamine, and an antibiotic solution containing penicillin (100 U/mL), amphotericin B (2.5 µg/mL), and streptomycin (100 µg/mL). The cells were maintained in a 5% humidified CO2 incubator (NBS Eppendorf, Germany) at 37°C. To induce differentiation into macrophages, the THP-1 cell line was treated with 25 ng/mL phorbol 12-myristate 13-acetate (PMA) (cat. 91585, Sigma-Aldrich, USA) and incubated for 48 hours. Following incubation, the cells were seeded in a 96-well culture plate at a density of 5x10^4 cells/well and incubated for 24 hours in a humidified 5% CO2 incubator at 37°C.
# Inverted phase contrast microscopy (IPCM) using an Olympus CKX41 microscope (Olympus, Japan) equipped with an Optika Pro5 CCD camera (Optika, Italy) was utilized to directly observe the cells. Cell viability was determined using the MTT (3-(4,5-Dimethylthiazol-2-yl)-2,5-diphenyltetrazolium bromide) assay (Sigma, M-5655). […] The absorbance of this colored solution can be quantified by measuring at approximately 570 nm using a spectrophotometer.
# The whole plate was analyzed under a microscope with an IPCM, and the results were photographed. […] The purple formazan crystals were dissolved in dimethyl sulfoxide (DMSO) and the absorbance (OD) was measured at 570 nm using a microplate reader. […]
substance,measurement,setting,value
"β-defensin 1: β-Defensin 1 peptide was purchased from ThermoFisher Scientific, USA; cationic antimicrobial peptide (DHYNCVSSGGQCLYSACPIFTKIQGTCYRGKAKCCK; ends and bridges not checked; cysteine pairing not given here; UniProt P60022 33-68, looked up)",live cells,THP-1 cells [1],77.35%
same,binding affinity with Pg-LPS (docking),[2],good binding affinity with Pg-LPS
same,"ROS generation, Fluorescence intensity",THP-1 cells [3],5006.24 AU
same,viability (in words),[4]; Pg-LPS (1 h) up to 1 µg/mL,increased the viability of THP-1 cells
same,viability (in words),[4]; Pg-LPS beyond 1 µg/mL,decrease in viability
